Source: PMC7203344, “Sirtuin 1 Inhibiting Thiocyanates (S1th)—A New Class of Isotype Selective Inhibitors of NAD^+ Dependent Lysine Deacetylases” (Frontiers in Oncology, 2020)
“Also recorded” adds a separate entry of the source.

Legend:
HeLa cells [1] = test: Colony forming assay with HeLa cells; type: cell-based, human; settings: 7–10 days; concentrations as in proliferation assay
Procedure: (§1) For colony assays, 50 cells per well were seeded in 6-well plates and grown in the same conditions with the same drug concentrations as for the proliferation assays. In this case, the growth media containing the drugs was replaced every 48 h. After 7–10 days, when isolated colonies were formed, wells were washed with PBS, and cells were fixed with cold methanol for 5 min at RT. Cells were stained with crystal violet for 10 min at RT and washed with H2O. Images were acquired using iBright (Thermo Fisher Scientific, MA, USA). For quantification, cells of each well were resuspended in 10% glacial acetic acid to dissolve crystal violet whose levels were monitored by measuring absorbance at 590 nm. The experiment was performed in duplicates.

HeLa cells [2] = test: Cell proliferation assay with HeLa cells; type: cell-based, human; settings: EX-527 20 μM, S1th 13 12 μM, S1th 12 20 μM, S1th 10 30 μM; up to 120 h
Procedure: (§2) 1.5 × 10^4 cells/well were seeded in 24-well plates and grown in DMEM 10% in presence of DMSO, 20 μM EX-527, 12 μM S1th 13, 20 μM S1th 12, or 30 μM S1th 10. The growth media containing the drugs was replaced every 48 h. Cells were collected and counted at the indicated times starting 24 h after seeding (0, 24, 48, 72, 96, and 120 h). The experiment was performed twice in duplicates.

HeLa cells [3] = test: Wound healing assay with HeLa cells; type: cell-based, human
Procedure: For wound healing assay 6 × 10^5 cells per well were seeded in 6-well plates and grown for 24 h in DMEM containing 10% FBS. After 24 h, a lineal gap between cells was created in the middle of the plate by scratching the cell monolayer with a 1 mL pipette tip in the same position in each well. Once the scratching is done, plates were washed twice with PBS and then grown in DMEM containing 1% FBS and the drugs in the same concentrations as for the proliferation assay. As described previously, the growth media 1% FBS containing the drugs was replaced every 48 h. Images were acquired in an Optimal microscope (Leica microscopes, DE) using Leica Application Suite X (LAS X) every 24 h (0, 24, 48, and 72 h) until the gap closed. The quantification of the area of the gap at the indicated times was performed with Image J-MRI Wound Healing Tool. The experiment was performed only once.

MCF7 cells [4] = test: Cell proliferation assay with MCF7 cells; type: cell-based, human; settings: concentrations as for HeLa
Procedure: as §2

MCF7 cells [5] = test: Colony forming assay with MCF7 cells; type: cell-based, human; settings: concentrations as for HeLa
Procedure: as §1

[6] = system: H3K9ac and p53K382ac in HeLa cells; test: Analysis of acetylation status in HeLa cells by western blotting; type: cell-based, human; settings: 48 h, concentrations as in proliferation assay
Procedure: 5 × 10^4 cells were plated in 6-well plates and grown with the conditions and drug concentrations as described for the proliferation assay. Cells were harvested at 48 h and resuspendend in protein loading buffer. After sonication the samples were centrifuged at 14,000 rpm in an Eppendorf microcentrifuge (Eppendorf, DE) and the supernatants were analyzed by western-blot. The following antibodies were used: histone H3 (Cell Signaling #9715), histone H3K9ac (Cell Signaling # C5B11), GAPDH (Cell Signaling #D16H11), p53 (ThermoFisher #PA527822), and p53K382ac (Abcam 75754). Quantification was carried out using imageJ.

[7] = system: γH2AX/H2AX levels in MEF cells; test: γH2AX level determination by western blot; type: cell-based, mouse
Procedure: Sirt1 WT and KO MEFS cells were treated with 10 μM EX-527, 12 μM S1th 13 (6), 20 μM S1th 12 (5), 30 μM S1th 10 (7) and 30 μM SirReal2 [Sirt2 inhibitor, synthesized according to ([62])] for 48 h. Oxidative stress was induced using 10 μM Camptothecin 2 h. Whole-cell extracts were performed according to the Dignam protocol ([63]). Primary antibodies used for the western blot were anti-H2AX and anti-γH2AX (ab11175 and ab2893 resp., Abcam, UK). Densiometric analysis of the western blots was performed with Quantity One software (Bio-Rad Laboratories, Inc., USA).

Sirt1 = biological target: T1, Sirt1 (Homo sapiens, UniProt Q96EB6); test: Fluorescent thermal shift assay (FTSA), Sirt1; type: binding
T1 construct: made in house; host or cells: E. coli BL21 Star (DE3)
T1 sequence (Q96EB6 134-747): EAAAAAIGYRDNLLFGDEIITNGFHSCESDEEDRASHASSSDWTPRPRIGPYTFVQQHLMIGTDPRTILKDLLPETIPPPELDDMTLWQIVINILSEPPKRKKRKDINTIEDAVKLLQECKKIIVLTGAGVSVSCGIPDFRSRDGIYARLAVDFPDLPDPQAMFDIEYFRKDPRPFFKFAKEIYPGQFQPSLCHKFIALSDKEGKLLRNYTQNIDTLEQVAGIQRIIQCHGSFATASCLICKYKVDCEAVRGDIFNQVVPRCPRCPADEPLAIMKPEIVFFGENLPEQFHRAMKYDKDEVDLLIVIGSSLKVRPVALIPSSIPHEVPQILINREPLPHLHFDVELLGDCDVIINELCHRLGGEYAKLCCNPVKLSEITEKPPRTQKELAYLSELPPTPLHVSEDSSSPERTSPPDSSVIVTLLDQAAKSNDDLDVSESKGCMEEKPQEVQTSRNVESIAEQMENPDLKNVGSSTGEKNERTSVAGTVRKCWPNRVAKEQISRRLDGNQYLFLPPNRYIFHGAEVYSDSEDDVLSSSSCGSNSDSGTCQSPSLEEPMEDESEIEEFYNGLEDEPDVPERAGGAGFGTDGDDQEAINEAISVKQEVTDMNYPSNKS
Procedure: In a 96-well plate (Hard-Shell® PCR-plates, 96-well, thin-wall, BioRAD, USA) 14 μL Sirt1_134−747 in assay buffer (0.3 mg/mL final assay concentration, 50 mM Tris/HCl, 137 mM NaCl, 2.7 mM KCl, 1 mM MgCL2, pH 8.0) were mixed with 1 μL inhibitor in DMSO (100 μM) or DMSO [final assay concentration 5% (v/v)] as a control and 5 μL SyproOrange (1:100 in assay buffer). The fluorescence intensity was monitored during a constant increase of temperature from 20 to 95°C, 1 K per 20 s, using a real-time-PCR-machine (C1000 TouchTM Thermal Cycler, CFX96TM Real-Time System, BioRAD, USA). Melting temperatures were calculated via GraphPad Prism according to a published procedure ([60]).

## NC(=O)C1CCCc2c1[nH]c1ccc(Cl)cc21 (stereo not drawn) [EX-527, reference compound]
HeLa cells [1]
  colony forming of HeLa cells: completely suppressed colony forming
HeLa cells [2]
  cell proliferation of HeLa cells: significantly decreased cell proliferation
HeLa cells [3]; 24 h, concentrations as in proliferation assay, performed once
  migration of HeLa cells (wound healing), 24 h: failed to impair migration
HeLa cells [3]; 72 h
  wound healing of HeLa cells, 72 h: mild effect on wound healing
MCF7 cells [4]
  cell proliferation of MCF7 cells: only have a mild effect
MCF7 cells [5]
  colony forming capabilities of MCF7 cells: significantly decreased
[6]
  H3K9 acetylation in HeLa cells: no hyperacetylation
  p53K382 acetylation in HeLa cells: increased acetylation levels
[6]; listed as 1
  H3K9 acetylation in HeLa cells: did not show clear hyperacetylation
[7]; 48 h, EX-527 10 μM, S1th 10 30 μM, S1th 12 20 μM, S1th 13 12 μM, SirReal2 30 μM
  γH2AX/H2AX levels without Camptothecin: decreased
[7]; Camptothecin 10 μM 2 h, same inhibitor concentrations
  γH2AX/H2AX levels after addition of Camptothecin: strong decrease
Sirt1
  effect on Tm of Sirt1 (in words): barely effected; also recorded: very small shift or no shift at all
